Experimental data: paper PMC10223284, “Category-Based Toxicokinetic Evaluations of Data-Poor Per- and Polyfluoroalkyl Substances (PFAS) using Gas Chromatography Coupled with Mass Spectrometry” (Toxics, 2023)
Values joined by “and” are separate entries in the source; they are usually repeats but may differ in a detail not shown here. Equal values may be shown once. Read-outs that look alike come from different tables or passages of the source.

Tests used:
[1] = Hepatic metabolic stability (hepatocyte clearance) assay, substrate depletion; format: in vitro ADME, human; settings: both sexes, human, s9, Clint.1.Med
Source text: (§1) William’s Medium E (Gibco A1217601), dexamethasone, and cell maintenance cocktail B (Gibco CM4000) were obtained from Thermo Fisher Scientific (Waltham, MA, USA). Hepatosure OptiThaw media (P/N K8000; Lot No. 18–1–0322) was obtained from Sekisui Xenotech (Kansas City, KS, USA). Trypan blue solution (P/N 1450021) was obtained from Bio-Rad (Hercules, CA, USA). Pooled human cryopreserved primary hepatocyte suspensions were obtained from BioIVT (Westbury, NY, USA) and produced using nontransplantable tissue. The human 50-donor pool (mixed gender; Cat X0080005; Lot MYC), selected from BioIVT’s commercially available, prepooled lots, was selected following review of vendor-generated metabolic characterization information. Pooled, mixed-sex human plasma from de-identified donors was obtained from a commercial vendor that operates a U.S. Food and Drug Administration-licensed and inspected donor center (BioIVT bioivt.com (accessed 12 May 2023). Donors comprised five males and five females and ranged from 20 to 50 years of age. Plasma collected using anticoagulant K2EDTA was sterile-filtered ([…]) and stored at <−70 °C until use.
(§2) The hepatic metabolic stability assay measures the loss of a parent compound over time in a substrate-depletion approach. Briefly, hepatocyte suspensions, after a viability assessment, were diluted in complete William’s medium E (containing dexamethasone and cell maintenance cocktail B) prior to addition to 96-well polypropylene plates containing an equal volume of media spiked with the test compound (1 μM assay concentration; assay cell density = 50,000 cells/100 μL) and maintained at 37 °C with shaking. At each time point, relevant plates were crashed with an equal volume of ice-cold acetonitrile, centrifuged, and supernatant transferred to a new plate prior to storage at <−70 °C until quantitative analysis. Controls, run in parallel, included cell-free (i.e., media only) and metabolically inactivated hepatocytes to evaluate abiotic chemical stability in the aqueous media matrix with and without cellular protein. In preliminary runs, these controls were run at T0 and T240 only. If significant instability was noted, the hepatocyte clearance assay was rerun, including cell-free samples at each time point and metabolically inactivated hepatocytes at selected time points.
(§3) To process samples for quantitative analysis, samples were thawed and mixed. An aliquot of sample was removed and diluted in acetonitrile (1 part sample plus 9 parts acetonitrile) containing the relevant ISs selected for the PFAS being analyzed (See Table S2). The target at instrument concentration of each IS was 10 pg/μL.
(§4) The curves were generated using concentration/response ratios from the target analyte and IS, with either linear or quadratic regression models. The model and weighting, if necessary, were chosen to most accurately reflect the response of each compound and was evaluated by recalculating the individual calibration points using the curve. An acceptable model reflected an accuracy of ±30% of the theoretical value.
(§5) Hepatic metabolic clearance data were plotted in semi-log format (ln concentration vs. time) with three replicates at each time point, as previously described. […] The equations described below are used to calculate the chemical half-life (T½) and intrinsic in vitro clearance (Clin vitro) with units of μL/(min × million hepatocytes). In Equation (3), 2000 is a scalar used to adjust the assay cell number up to be consistent with units of 1 million cells in the Clint equation.
(§6) Negative controls, including media only and metabolically inactivated hepatocyte controls, were included to monitor abiotic loss (i.e., background clearance) during the assay. Where significant compound loss occurred using the analysis described above, background clearance rates were calculated and used to background-adjust hepatic metabolic clearance rates. […]

[2] = Abiotic loss in negative controls of the hepatocyte clearance assay (cell-free media, metabolically inactivated hepatocytes); format: in vitro ADME; settings: for Hep_Stab_Fail: flag for stability failure in hepatocyte clearance assay controls (1 or Fst = fail, 0 = pass)
Experimental: as §2
Negative controls, including media only and metabolically inactivated hepatocyte controls, were included to monitor abiotic loss (i.e., background clearance) during the assay. Where significant compound loss occurred using the analysis described above, background clearance rates were calculated and used to background-adjust hepatic metabolic clearance rates. Where chemicals were cleared prior to the end of the analysis, at 240 min (T240), the corresponding negative control timepoint was used for background subtraction. Any chemicals displaying a 50% or more abiotic loss at T120 were deemed unstable and were excluded from further analyses.

human plasma [3] = settings: human, plasma
human plasma [4] = assay: Chemical stability in plasma over the UC assay time course (T5hr/T1hr); settings: for % remaining_PPB: chemical remaining in plasma over the PPB assay time course, NS = no significant loss; for PPB_Stab_Fail: flag for stability failure in the plasma protein binding assay (1 = fail, 0 = pass); for Fstable.Med: median fraction stable in plasma, UC assay Level4; for Stability (T5hr/ T1hr), replicates A, B, C: single replicate of one UC run
in vitro = settings: both, human, plasma
human plasma [5] = assay: Ultracentrifugation (UC) plasma protein binding assay, fraction unbound in plasma (fup); settings: for Fup.Med: median fraction unbound in plasma; for Fup.Med / Fup.point: UC assay Level4; for Fup.point: point estimate of fraction unbound in plasma; for Fraction Unbound (fu), replicates A, B, C: single replicate of one UC run (aqueous fraction / Time 5 hr); for fup: human plasma, 10 μM, 37 °C
human primary cells = settings: cited from earlier work
[6] = In vitro-in vivo extrapolation (IVIVE) to Css and administered equivalent dose (AED); set-up: species or system human
Experimental: Using the experimentally generated PPB (fraction unbound in plasma, fup) and hepatic Clint data, IVIVE was performed as previously described to calculate human steady-state plasma concentrations (Css). Briefly, experimental measures of fup are adjusted using blood:plasma partitioning information to estimate the fraction unbound in blood (fub). Experimental hepatocyte Clint data are scaled up to represent whole-liver clearance (L/h). […] Once estimated, these Css values are considered in conjunction with published in vitro bioactivity concentrations (i.e., lowest-observed effective concentrations, or LOECs) to calculate AEDs (Table 2). See Table S10 for all relevant IVIVE inputs, scalars, calculations, and outputs.

[7] = tested on: pooled human cryopreserved primary hepatocyte suspensions; assay: Hepatic metabolic stability (hepatocyte clearance) assay, substrate depletion; format: in vitro ADME
Source text: as §1, §2, §3, §4, §5, §6

[8] = average of one UC run (run date in line above)
[9] = mean T5hr/T1hr ratio over all replicates and runs, plasma
[10] = Fraction Unbound (fu), Run-specific Avg, average of one UC run (run date in line above)
[11] = Fraction Unbound (fu), replicates A, B, C, single replicate of one UC run (aqueous fraction / Time 5 hr)
[12] = Mean Fu, mean fraction unbound over all replicates and runs, UC assay, human plasma
[13] = Mean fu, fraction unbound in human plasma, ultracentrifugation, some values based on eLOQ
[14] = heat treated hepatocytes control, 0 vs 240 min
[15] = heat treated hepatocytes, Rep 1-3
[16] = hepatocyte incubation, Rep 1-3, start conc 1000 nM
[17] = hepatocyte time course, NS = slope not significant

CCNc1nc(NC(C)C)nc(SC)n1 [Ametryn, reference compound]
hepatocyte CLint at 1 μM [1]: 14.7 µL/min/1e6 cells

C=CC(=O)OCCC(F)(F)C(F)(F)C(F)(F)C(F)(F)C(F)(F)C(F)(F)C(F)(F)C(F)(F)F [8:2 Fluorotelomer acrylate]
Hep_Stab_Fail [2]: 1
% remaining_PPB (human plasma [3]): 0%
PPB_Stab_Fail (human plasma [3]): 1

C=C(C)C(=O)OCC(F)(F)C(F)(F)C(F)(F)C(F)F [1H,1H,5H-Perfluoropentyl methacrylate]
Time 1 hr (human plasma [4]; amount measured in plasma sample at 1 hr, replicates A, B, C, unit not given): 1599.93 and 1543.59 and 1278.91
Time 1 hr, Run-specific Avg (human plasma [4]; amount measured in plasma sample at 1 hr, run average, unit not given): 1474.15
Time 5 hr (human plasma [4]; amount measured in plasma sample at 5 hr, replicates A, B, C, unit not given): 75.2443 and 72.767 and 69.0294
Time 5 hr, Run-specific Avg (human plasma [4]; amount measured in plasma sample at 5 hr, run average, unit not given): 74.01
Stability (T5hr/ T1hr), Run-specific Avg (human plasma [4]; average of one UC run): 0.050
% remaining_PPB (human plasma [4]): 0.01%
PPB_Stab_Fail (human plasma [4]): 1
Mean Stability (human plasma [4]; mean T5hr/T1hr ratio in plasma over all replicates/runs): 0.050
Fstable.Med (human plasma [4]): 0.00623
Hep_Stab_Fail [2]: 1
fraction unbound (in vitro; Fraction Unbound (fu), Run-specific Avg, average of one UC run): 0.25
fraction unbound (in vitro; Mean Fu, mean fraction unbound in human plasma over all UC replicates/runs): 0.248
Aqueous Fraction (human plasma [5]; amount measured in aqueous fraction after ultracentrifugation, replicates A, B, C, unit not given): 25.8202 and 12.2631 and 16.0467
Aqueous Fraction, Run-specific Avg (human plasma [5]; amount measured in aqueous fraction after ultracentrifugation, run average, unit not given): 18.04
Fup.Med (human plasma [5]): 0.267
Fup.point (human plasma [5]): 0.249

O=C(CC(=O)C(F)(F)C(F)(F)C(F)(F)F)c1cccs1 [(Perfluorobutyryl)-2-thenoylmethane]
Stability (T5hr/ T1hr), Run-specific Avg (human plasma [4]; [8]): 1.277
% remaining_PPB (human plasma [4]): 100%
PPB_Stab_Fail (human plasma [4]): 0
Mean Stability (human plasma [4]; [9]): 1.278
Fstable.Med (human plasma [4]): 0.959
Stability (T5hr/ T1hr), replicates A, B, C (human plasma [4]): 1.693 and 1.2724 and 0.868
Hep_Stab_Fail [2]: Fst
fraction unbound (in vitro; [10]): 0.00714
fraction unbound (in vitro; [11]): 0.00885
fraction unbound (in vitro; [12]): 0.007
fraction unbound (in vitro; [13]): 0.006
Fup.Med (human plasma [5]): 0.00944
Fup.point (human plasma [5]): 0.00576
Fraction Unbound (fu), replicates A, B, C (human plasma [5]): 0.006374 and 0.006195

OCC(F)(F)C(F)(F)C(F)(F)CO [Hexafluoroamylene glycol]
PPB_Stab_Fail (human plasma [4]): 0
Mean Stability (human plasma [4]; [9]): 0.996
Stability (T5hr/ T1hr), replicates A, B, C (human plasma [4]): 1.079 and 0.9916 and 0.917
Hep_Stab_Fail [2]: 0
HT BkgdCl, Half Life [2, 14]: 329.06
HT BkgdCl, Slope [2, 14]: -0.002106
Negative Controls, Heat Treated (HT), concentration at 0 min [2, 15]: 941.377 nM and 735.79 nM and 794.754 nM
Negative Controls, Heat Treated (HT), concentration at 240 min [2, 15]: 487.17 nM and 595.696 nM and 416.449 nM
No Cells BkgdCl, Half Life ([2]; no cells control, 0 vs 240 min): 490.099
No Cells BkgdCl, Slope ([2]; no cells control, 0 vs 240 min): -0.001414
Negative Controls, No cells (NC), concentration at 0 min ([2]; no cells, Rep 1-3): 830.122 nM and 683.027 nM and 707.501 nM
Negative Controls, No cells (NC), concentration at 240 min ([2]; no cells, Rep 1-3): 479.464 nM and 568.092 nM and 532.117 nM
LOEC (human primary cells; BioSeek lowest-observed effect concentration used for AED): 2.00 µM
LOEC (human primary cells; minimum lowest-observed effect concentration, BioSeek platform): 2 µM
Css ([6]; Assuming 1 mg/kg/day dose rate, BW 70 kg): 0.44 mg/L and 2.07 uM
Clhep ([6]; IVIVE, hepatocyte Clint scaled to whole-liver clearance): 0.000 L/h
AED ([6]; administered equivalent dose from LOEC and Css): 0.9667 mg/kg/day
Fub ([6]; fub=fup/(B:P), Fub set to 1 if needed): 1
Css ([6]; human steady-state plasma concentration, assuming 1 mg/kg/day dosage): 2.07 µM
Css ([6]; human steady-state plasma concentration, assuming 1 mg/kg/day dosage, listed as hexafluoroamylene glycol): 2.1 to 2.7 µM
CLint ([6]; scaled with HPGL 110 mill cells/g, Vl 1596 g): 0 µL/min
Fraction Unbound (fu), Run-specific Avg (human plasma [5]; [8]): 0.68
Mean fu (human plasma [5]; fraction unbound in human plasma, ultracentrifugation, some values based on eLOQ): 0.6770
fup (human plasma [5]; ultracentrifugation): 0.6770
fup (human plasma [5]; ultracentrifugation, listed as hexafluoroamylene glycol): 0.68
Fraction Unbound (fu), replicates A, B, C (human plasma [5]): 0.6223 and 0.7422 and 0.6663
Bkgd-Sub Clearance (µL/min/106 hepatocytes) ([7]; background-subtracted): 0.00 µL/min/106 hepatocytes
Concentration (nM), Time 0 min [7, 16]: 904.289 nM and 891.557 nM and 657.581 nM
Concentration (nM), Time 15 min [7, 16]: 889.716 nM and 801.576 nM and 938.868 nM
Concentration (nM), Time 30 min [7, 16]: 774.463 nM and 733.048 nM and 756.418 nM
Concentration (nM), Time 60 min [7, 16]: 901.107 nM and 929.789 nM and 820.604 nM
Concentration (nM), Time 120 min [7, 16]: 865.693 nM and 807.871 nM and 671.853 nM
Concentration (nM), Time 240 min [7, 16]: 674.351 nM and 611.715 nM and 490.915 nM
Linear Regression Results, Best-Fit Values, Slope ([7]; hepatocyte time course): -0.001398
Linear Regression Results, Best-Fit Values, Clearance [7, 17]: 2.796
Linear Regression Results, Best-Fit Values, Half Life [7, 17]: 495.708
clearance rate in hepatocytes ([7]; human hepatocyte suspensions, values as rounded or worded in text): no clearance

C=C(C)C(=O)OCCC(F)(F)C(F)(F)C(F)(F)C(F)(F)C(F)(C(F)(F)F)C(F)(F)F [(Perfluoro-5-methylhexyl)ethyl 2-methylprop-2-enoate]
% remaining_PPB (human plasma [4]): 63.6%
Fstable.Med (human plasma [4]): 0.43
Hep_Stab_Fail [2]: 1
fraction unbound (in vitro; [13]): 0.0603
Fup.Med (human plasma [5]): 4.30E-06
Fup.point (human plasma [5]): 0.0603

OCCCC(F)(F)C(F)(F)C(F)(F)F [3-(Perfluoropropyl)propanol]
Stability (T5hr/ T1hr), Run-specific Avg (human plasma [4]; [8]): 0.890
PPB_Stab_Fail (human plasma [4]): 0
Mean Stability (human plasma [4]; [9]): 0.892
Fstable.Med (human plasma [4]): 0.2
Stability (T5hr/ T1hr), replicates A, B, C (human plasma [4]): 0.858 and 0.887 and 0.929
Hep_Stab_Fail [2]: 1
fraction unbound (in vitro; [10]): 0.2
fraction unbound (in vitro; [11]): 0.179
fraction unbound (in vitro; [12]): 0.203
fraction unbound (in vitro; [13]): 0.203
Fup.Med (human plasma [5]): 0.202
Fup.point (human plasma [5]): 0.205
Fraction Unbound (fu), replicates A, B, C (human plasma [5]): 0.224 and 0.207
